From patent EP4644396A1 (Visionpharma (Nantong) Co., Ltd, priority 2022, dated 2024)

target: T1, human TLR7 (Homo sapiens, UniProt Q9NYK1); test: HEK-Blue hTLR7 SEAP reporter gene inhibition assay; assay type: cell-based; details: HEK-Blue hTLR7 IC50 (µM)
T1 sequence (Q9NYK1 27-1049): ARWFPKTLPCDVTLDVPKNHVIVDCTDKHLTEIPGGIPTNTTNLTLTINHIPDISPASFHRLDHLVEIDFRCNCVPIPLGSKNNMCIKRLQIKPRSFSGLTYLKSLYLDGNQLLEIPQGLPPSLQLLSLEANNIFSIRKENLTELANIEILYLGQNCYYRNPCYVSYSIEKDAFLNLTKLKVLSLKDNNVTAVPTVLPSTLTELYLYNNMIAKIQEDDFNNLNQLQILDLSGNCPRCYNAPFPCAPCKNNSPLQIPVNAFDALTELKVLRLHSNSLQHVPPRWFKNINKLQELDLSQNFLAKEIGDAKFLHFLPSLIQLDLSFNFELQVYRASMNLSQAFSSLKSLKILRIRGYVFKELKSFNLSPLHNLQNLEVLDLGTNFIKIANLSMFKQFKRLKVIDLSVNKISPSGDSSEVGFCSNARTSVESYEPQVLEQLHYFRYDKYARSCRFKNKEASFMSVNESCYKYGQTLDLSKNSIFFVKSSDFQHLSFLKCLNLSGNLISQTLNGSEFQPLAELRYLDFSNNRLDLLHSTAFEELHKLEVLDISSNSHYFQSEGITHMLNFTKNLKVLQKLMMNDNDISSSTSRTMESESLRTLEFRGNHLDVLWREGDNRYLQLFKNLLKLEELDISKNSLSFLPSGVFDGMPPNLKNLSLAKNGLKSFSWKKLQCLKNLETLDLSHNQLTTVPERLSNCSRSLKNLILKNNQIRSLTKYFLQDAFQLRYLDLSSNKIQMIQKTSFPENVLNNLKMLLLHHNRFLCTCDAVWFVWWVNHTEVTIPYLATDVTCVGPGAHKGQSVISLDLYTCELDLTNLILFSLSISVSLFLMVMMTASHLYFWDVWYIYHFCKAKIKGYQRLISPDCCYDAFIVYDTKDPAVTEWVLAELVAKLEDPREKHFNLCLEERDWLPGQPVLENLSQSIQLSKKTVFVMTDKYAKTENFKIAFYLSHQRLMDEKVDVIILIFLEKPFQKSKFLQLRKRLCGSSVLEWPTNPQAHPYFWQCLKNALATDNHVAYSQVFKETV
Description: (§1) HEK-Blue cells with stable expression of human TLR7 or TLR8 were used in the evaluation of inhibitory activity of compounds in the present invention against TLR7 or TLR8, by using its ability to induce the SEAP reporting gene under the control of the fusion of IFN-β minimum promoters into five NF-κB and ap-1 binding sites, as follows: hTLR7 HEK-Blue cells (Invivogen, 80, 000 cells per well) or hTLR8 HEK-Blue cells (60, 000 cells per well) were added to a 96-well cell culture plate. A solution of the testing compounds were added to each well, with the final concentration of tested compounds in the medium ranged from 0.001 to 36 µM and the culture was incubated for 15 minutes. M5049 was used as positive controls in the testing.
(§2) Then a TLR7 ligand (Gardiquimod, purchased from MedChemExpress, with final concentration of ligand in cell culture medium kept at 10 µM) or a TLR8 ligand (purchased from MedChemExpress with final concentration in cell culture media at 10 µM) and the culture was incubated for 20 hours. According to the manufacturer's instructions, a HEK-Blue reagent Quanti-blue (Invivogen) was used to detect the SEAP levels in cell cultures. The half […] concentration or IC50 was calculated by using GraphPad Prism. […] Table 1: Activities of examples in this invention to hTLR7/8 in HEK-Blue Cells

| Structure (SMILES) | IC50 |
| --- | --- |
| C[C@@H]1CN(c2ccc(C#N)n3ncc(F)c23)Cc2c3c(nn21)CN(CC(=O)N1CC2(COC2)C1)[C@@H](C)C3 [Example I-112, 4-((4R, 9S) -4,9-dimethyl-8-(2-oxydioxy-2-(2-oxytrioxy-6-nitrous [3.3]helium-6-ethyl)ethyl) -3,4,7,8,9, 10-hydropyridine [3 ', 4 ': 3, 4]pyrazole [1,5-a]pyrazine-2 (1 H) - yl) -3-fluoropyrazole [1,5-a] pyridine-7-nitrile] | > 0.05 µM |
| C[C@@H]1CN(c2ccc(C#N)n3ncc(F)c23)Cc2c3c(nn21)CCN(Cc1cn[nH]c1)C3 [Example I-54, (R)-4-(2-((1H-Pyrazole-4-yl)methyl) -7-methyl-1,3,4,7,8,10-hexahydropyridine[4 ', 3 ': 3, 4]pyrazole [1,5-a]pyrazine-9 (2H) -yl) -3-fluoropyrazole [1,5-a] pyridine-7-nitrile] | < 0.05 µM |
| C[C@@H]1CN(c2ccc(C#N)n3ncc(F)c23)Cc2c3c(nn21)CN(CC(=O)N1CCNCC1)[C@@H](C)C3 [Example I-113] | < 0.05 µM |
| C[C@@H]1CN(c2ccc(C#N)n3ncc(F)c23)Cc2c3c(nn21)CCN(Cc1ccn[nH]1)C3 [Example I-62] | > 0.05 µM |
| C[C@@H]1CN(c2ccc(C#N)n3ncc(F)c23)Cc2c3c(nn21)CCN(CC(F)F)C3 [Example I-56, (R)-4-(2-(2,2-difluoroethyl) -7-methyl-1,3,4,7,8, 10-hexahydropyridine [4 ', 3 ': 3, 4]pyrazole [1,5-a]pyrazine-9 (2H) -yl) -3-fluoropyrazole [1,5-a] pyridine-7-nitrile] | > 0.05 µM |

same assay, conditions: hTLR7 HEK-Blue cells, TLR7 ligand Gardiquimod 10 µM, 20 hours, SEAP by Quanti-blue; class symbols; read-out: HEK-Blue hTLR7 IC50

| Structure (SMILES) | IC50 |
| --- | --- |
| CC(C)N1CCc2nn3c(c2C1)CN(c1ccc(C#N)n2ncc(F)c12)C[C@H]3C [Example I-53, (R)-3-Fluoro-4-(2-isopropyl-7-methyl-1,3,4,7,8,10-hexahydropyrido[4',3':3,4]pyrazolo[1,5-a]pyrazin-9(2H)-yl)pyrazolo[1,5-a]pyridine-7-carbonitrile] | < 0.05 µM |
| CC(C)N1CCc2c(nn3c2CN(c2ccc(C#N)n4ncc(F)c24)C[C@H]3C)C1 [Example I-23, (R)-3-Fluoro-4-(8-isopropyl-4-methyl-3,4,7,8,9,10-hexahydropyrido[3',4':3,4]pyrazolo[1,5-a]pyrazin-2(1H)-yl)pyrazolo[1,5-a]pyridine-7-carbonitrile] | > 0.05 µM |
| C[C@@H]1CN(c2ccc(C#N)n3ncc(F)c23)Cc2c3c(nn21)CCC(N)C3 (stereo partly drawn) [Example I-9, 4-((4R)-9-amino-4-methyl-3,4,7,8,9,10-hexahydropyrazino[1,2-b]indazol-2(1H)-yl)-3-fluoropyrazolo[1,5-a]pyridine-7-carbonitrile] | > 0.05 µM |
| CNC(=O)CN1Cc2nn3c(c2C[C@@H]1C)CN(c1ccc(C#N)n2ncc(F)c12)C[C@H]3C [Example I-101, 2-((4R,9S)-2-(7-cyanide-3-fluoropyridox and [1,5-a]pyridox-4-base)-4,9-dimethyl-1,2,3,4,9, 10-hydropyridox [3 ', 4 ': 3, 4]pyrazolo [1,5-a]pyrazine-8 (7 H) -yl)-N-methyl acetamide] | > 0.05 µM |
| C[C@@H]1CN(c2ccc(C#N)n3ncc(F)c23)Cc2c3c(nn21)CN[C@H](CC#N)C3 [Example I-86, 4-((4R,9S)-9-(cyanomethyl)-4-methyl-3,4,7,8,9,10-hexahydropyrido[3',4':3,4]pyrazolo[1,5-a]pyrazin-2(1H)-yl)-3-fluoropyrazolo[1,5-a]pyridine-7-carbonitrile] | < 0.05 µM |

The remaining lines, values ahead:

| IC50 | Structure (SMILES) |
| --- | --- |
| < 0.05 µM | CC1Cc2c(nn3c2CN(c2ccc(C#N)n4ncc(F)c24)C[C@H]3C)C(C)N1 (single isomer, unassigned) [Example I-88a] |
| > 0.05 µM | C[C@@H]1CN(c2ccc(C#N)n3ncc(F)c23)Cc2c3c(nn21)CCC(C)(N)C3 (stereo partly drawn) [Example I-80, 4-((4R)-9-Amino-4,9-dimethyl-3,4,7,8,9,10-hexahydropyrazino[1,2-b]indazol-2(1H)-yl)-3-fluoropyrazolo[1,5-a]pyridine-7-carbonitrile] |
| > 0.05 µM | C[C@@H]1CN(c2ccc(C#N)n3ncc(F)c23)Cc2c3c(nn21)CCN(C1CCC1)C3 [Example I-49, (R)-4-(2-cyclobutyl-7-methyl-1,3,4,7,8,10-hexahydropyrido[4',3':3,4]pyrazolo[1,5-a]pyrazin-9(2H)-yl)-3-fluoropyrazolo[1,5-a]pyridine-7-carbonitrile] |
| < 0.05 µM | CCN1CCc2nn3c(c2C1)CN(c1ccc(C#N)n2ncc(F)c12)C[C@H]3C [Example I-25, (R)-4-(2-ethyl-7-methyl-1,3,4,7,8,10-hexahydropyrido[4',3':3,4]pyrazolo[1,5-a]pyrazin-9(2H)-yl)-3-fluoropyrazolo[1,5-a]pyridine-7-carbonitrile] |
| > 0.05 µM | C[C@@H]1CN(c2ccc(C#N)n3ncc(F)c23)Cc2c3c(nn21)CCN(Cc1cnn(C)c1)C3 [Example I-67, (R)-3-Fluoro-4-(7-methyl-2-((1-methyl-1H-pyrazol-4-yl)methyl)-1,3,4,7,8,10-hexahydropyrido[4',3':3,4]pyrazolo[1,5-a]pyrazin-9(2H)-yl)pyrazolo[1,5-a]pyridine-7-carbonitrile] |
| > 0.05 µM | C[C@@H]1CN(c2ccc(C#N)n3ncc(F)c23)Cc2c3c(nn21)CN(Cc1ncco1)[C@@H](C)C3 [Example I-133, 4-((4R,9S)-4,9-dimethyl-8-(oxazol-2-ylmethyl)-3,4,7,8,9,10-hexahydropyrido[3',4':3,4]pyrazolo[1,5-a]pyrazin-2(1H)-yl)-3-fluoropyrazolo[1,5-a]pyridine-7-carbonitrile] |
| < 0.05 µM | C[C@@H]1CN(c2ccc(C#N)n3ncc(F)c23)Cc2c3c(nn21)CN(CC(=O)N(C)C)[C@@H](C)C3 [Example I-102, 2-((4R,9S)-2-(7-cyano-3-fluoropyrazolo[1,5-a]pyridin-4-yl)-4,9-dimethyl-1,2,3,4,9,10-hexahydropyrido[3',4':3,4]pyrazolo[1,5-a]pyrazin-8(7H)-yl)-N,N-dimethylacetamide] |

target: T2, human TLR8 (Homo sapiens, UniProt Q9NR97); test: HEK-Blue hTLR8 SEAP reporter gene inhibition assay; assay type: cell-based; details: hTLR8 HEK-Blue cells, TLR8 ligand 10 µM, 20 hours, SEAP by Quanti-blue; class symbols; read-out: HEK-Blue hTLR8 IC50
T2 construct: expressed in transfected cells
T2 sequence (Q9NR97 27-1041): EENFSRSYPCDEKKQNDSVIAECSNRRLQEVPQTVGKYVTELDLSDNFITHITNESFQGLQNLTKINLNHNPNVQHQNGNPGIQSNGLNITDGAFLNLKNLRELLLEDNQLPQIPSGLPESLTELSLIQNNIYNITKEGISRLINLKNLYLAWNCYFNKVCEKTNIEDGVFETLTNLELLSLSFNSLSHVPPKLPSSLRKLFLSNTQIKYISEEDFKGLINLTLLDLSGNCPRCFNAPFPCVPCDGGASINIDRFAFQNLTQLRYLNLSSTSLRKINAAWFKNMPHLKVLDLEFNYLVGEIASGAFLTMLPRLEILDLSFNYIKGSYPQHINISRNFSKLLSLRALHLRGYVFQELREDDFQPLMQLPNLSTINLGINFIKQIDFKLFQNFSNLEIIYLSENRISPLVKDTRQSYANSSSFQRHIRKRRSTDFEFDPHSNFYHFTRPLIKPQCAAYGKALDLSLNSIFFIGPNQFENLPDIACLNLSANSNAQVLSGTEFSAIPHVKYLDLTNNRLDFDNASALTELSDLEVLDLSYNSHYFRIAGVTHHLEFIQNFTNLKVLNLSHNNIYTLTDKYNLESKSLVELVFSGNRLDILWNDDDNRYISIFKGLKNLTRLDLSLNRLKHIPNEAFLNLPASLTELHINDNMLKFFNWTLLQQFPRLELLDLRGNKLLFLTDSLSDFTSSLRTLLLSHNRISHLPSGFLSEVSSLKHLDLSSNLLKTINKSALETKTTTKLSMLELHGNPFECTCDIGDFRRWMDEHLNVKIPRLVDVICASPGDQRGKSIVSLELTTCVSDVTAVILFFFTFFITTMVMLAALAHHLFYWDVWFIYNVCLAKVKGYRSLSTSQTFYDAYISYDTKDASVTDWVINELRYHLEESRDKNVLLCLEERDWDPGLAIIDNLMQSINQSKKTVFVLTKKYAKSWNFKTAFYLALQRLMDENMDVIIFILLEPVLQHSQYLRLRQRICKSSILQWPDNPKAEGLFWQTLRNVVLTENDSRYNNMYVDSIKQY
Description: as §1, §2

| Structure (SMILES) | IC50 |
| --- | --- |
| CC1Cc2c(nn3c2CN(c2ccc(C#N)n4ncc(F)c24)C[C@H]3C)C(C)N1 (single isomer, unassigned) [Example I-88a] | < 100 nM |
